From patent US20220195432A9 (priority 2020, published 2022)

Experiments:
[1] = test system: MHV; assay type: in vivo; conditions: IFNar knockout mice infected with MHV, paquinimod nasal drop group, FIG. 17
[2] = test system: MHV; assay type: in vivo, mice
[3] = test system: IAV; design: species or system mice; conditions: mouse, in vivo
[4] = test system: SARS-CoV2; assay: SARS-CoV2 infection of human ACE2 mice, paquinimod nasal drop group versus control; assay type: in vivo
[5] = MHV-infected lung tissues of IFNar knockout mice, FIG. 18
[6] = SARS-CoV2 pneumonia animal model

## CCc1cccc2c1c(O)c(C(=O)N(CC)c1ccccc1)c(=O)n2C [paquinimod]
[1]
  survival rate: increased survival rate
[2]; [5]
  inflammation and lung damage caused by inflammation: reducing inflammation and lung damage
  lung S100A8 gene expression: not up-regulated
[2]; coronavirus-infected mice
  activation of neutrophils caused by coronavirus infection: inhibit the activation of neutrophils
[2]; lung tissues of IFNar knockout mice, FIG. 18
  replication of MHV: inhibiting replication
[3]
  survival rate: no significant difference
[4]; FIG. 18
  replication of SARS-CoV-2: inhibiting replication
[4]; [6]
  inflammation level: decreasing the inflammation level
  virus titer in tissues: inhibits the virus titer in tissues
